*1 amine or outer side, *2 acyl side, *3 side chain or, on linkers, in order; H or OH if unused. Where a SMILES comes first, the peptide text is derived from it. Bridges are numbered along the chain shown (N, C = ends). [ ]: non-standard residue; d: D form. The star is where a group is joined. X21 = O=C([C@H](Cc1ccc(C(F)(F)F)cc1)N(CC1CCCC1)[*:1])[*:2]; hPhe(3-Cl-4-CF3) = N[C@@H](CCc1ccc(C(F)(F)F)c(Cl)c1)C(=O)O; X23 = CC(C)CN([C@@H](Cc1ccc(C(F)(F)F)cc1)C(=O)[*:2])[*:1]; X37 = O=C([C@H](Cc1ccc(C(F)(F)F)cc1)N(CC1CCC1)[*:1])[*:2]; X31 = O=C([C@H](Cc1ccc(C(F)(F)F)cc1)N(CC1CC1)[*:1])[*:2]; X17 = CCCCN([C@@H](Cc1ccc(C(F)(F)F)cc1)C(=O)[*:2])[*:1]; X41 = Cc1ccc(C[C@@H](C(=O)[*:2])N(CCC(F)(F)F)[*:1])cc1; X26 = COCCCN([C@@H](Cc1ccc(C)cc1)C(=O)[*:2])[*:1]; X48 = C=CCCN([C@@H](Cc1ccc(C)cc1)C(=O)[*:2])[*:1]; X12 = COCCN([C@@H](Cc1ccc(C)cc1)C(=O)[*:2])[*:1]; NMeGly(cPent) = CN[C@H](C(=O)O)C1CCCC1; NMeD = CN[C@@H](CC(=O)O)C(=O)O; NMeL = CN[C@@H](CC(C)C)C(=O)O; Morpholide = C1CN(*)CCO1; NMeA = CN[C@@H](C)C(=O)O; Ac5c = NC1(C(=O)O)CCCC1; Aze = O=C(O)[C@@H]1CCN1; Sar = CNCC(=O)O
What was measured:
[1] = target: GDP-bound HRAS wild-type protein (Homo sapiens, UniProt P01112); assay: Binding to HRAS by surface plasmon resonance (SPR), Single Cycle Kinetics; settings: KD ratio HRAS/KRAS, SPR
[2] = target: GDP-bound NRAS wild-type protein (Homo sapiens, UniProt P01111); assay: Binding to NRAS by surface plasmon resonance (SPR), Single Cycle Kinetics; settings: KD ratio NRAS/KRAS, SPR
GDP-bound NRAS wild-type protein, sequence (P01111 whole entry): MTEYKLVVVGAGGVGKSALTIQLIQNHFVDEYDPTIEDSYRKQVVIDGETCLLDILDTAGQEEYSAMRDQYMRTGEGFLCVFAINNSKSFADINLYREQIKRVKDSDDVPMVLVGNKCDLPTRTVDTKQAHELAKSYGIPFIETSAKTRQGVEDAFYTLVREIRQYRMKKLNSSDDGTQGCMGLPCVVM

GDP-bound HRAS wild-type protein, sequence (P01112 whole entry): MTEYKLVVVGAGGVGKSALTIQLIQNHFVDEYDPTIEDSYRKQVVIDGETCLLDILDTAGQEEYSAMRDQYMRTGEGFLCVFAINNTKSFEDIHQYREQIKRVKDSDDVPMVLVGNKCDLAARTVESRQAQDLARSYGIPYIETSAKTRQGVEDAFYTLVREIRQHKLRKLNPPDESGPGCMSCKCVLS

SMILES | HRAS/KRAS (ratio of KD for GDP-bound HRAS wild-type to KD for KRAS) [1] | NRAS/KRAS (ratio of KD for GDP-bound NRAS wild-type to KD for KRAS) [2]
C=CCCN1C(=O)CN(C)C(=O)CN(C)C(=O)[C@H]([C@@H](C)CC)NC(=O)[C@H](CC(C)C)N(C)C(=O)C[C@@H](C(=O)N2CCOCC2)N(C)C(=O)[C@H](C2CCCC2)N(C)C(=O)C2(CCCC2)NC(=O)[C@@H]2CCCN2C(=O)[C@H](CCc2ccc(C(F)(F)F)c(Cl)c2)NC(=O)CN(C)C(=O)[C@@H]1Cc1ccc(C)cc1 [PP0101] ([NMeL]I[Sar][Sar][X48][Sar][hPhe(3-Cl-4-CF3)]P[Ac5c][NMeGly(cPent)][NMeD]-Morpholide; lactam N-11) | C (A compound having a KD ratio of 0.1 or more and less than 3 is denoted as C) | B (a compound having 3 or more and less than 10 is denoted as B)
CC[C@H](C)[C@@H]1NC(=O)[C@H](CC(C)C)N(C)C(=O)C[C@@H](C(=O)N2CCOCC2)N(C)C(=O)[C@H](C2CCCC2)N(C)C(=O)C2(CCCC2)NC(=O)[C@@H]2CCCN2C(=O)[C@H](CCc2ccc(C(F)(F)F)c(Cl)c2)NC(=O)CN(C)C(=O)[C@H](Cc2ccc(C)cc2)N(CCC(F)(F)F)C(=O)CN(C)C(=O)CN(C)C1=O [PP0103] ([NMeL]I[Sar][Sar][X41][Sar][hPhe(3-Cl-4-CF3)]P[Ac5c][NMeGly(cPent)][NMeD]-Morpholide; lactam N-11) | C (A compound having a KD ratio of 0.1 or more and less than 3 is denoted as C) | B (a compound having 3 or more and less than 10 is denoted as B)
CC[C@H](C)[C@@H]1NC(=O)[C@H](CC(C)C)N(C)C(=O)C[C@@H](C(=O)N2CCOCC2)N(C)C(=O)[C@H](C2CCCC2)N(C)C(=O)C2(CCCC2)NC(=O)[C@@H]2CCCN2C(=O)[C@H](CCc2ccc(C(F)(F)F)c(Cl)c2)NC(=O)CN(C)C(=O)[C@H](Cc2ccc(C)cc2)N(CCOC)C(=O)CN(C)C(=O)CN(C)C1=O [PP0104] ([NMeL]I[Sar][Sar][X12][Sar][hPhe(3-Cl-4-CF3)]P[Ac5c][NMeGly(cPent)][NMeD]-Morpholide; lactam N-11) | C (A compound having a KD ratio of 0.1 or more and less than 3 is denoted as C) | B (a compound having 3 or more and less than 10 is denoted as B)
CC[C@H](C)[C@@H]1NC(=O)[C@H](CC(C)C)N(C)C(=O)C[C@@H](C(=O)N2CCOCC2)N(C)C(=O)[C@H](C2CCCC2)N(C)C(=O)C2(CCCC2)NC(=O)[C@@H]2CCCN2C(=O)[C@H](CCc2ccc(C(F)(F)F)c(Cl)c2)NC(=O)CN(C)C(=O)[C@H](Cc2ccc(C)cc2)N(CCCOC)C(=O)CN(C)C(=O)CN(C)C1=O [PP0105] ([NMeL]I[Sar][Sar][X26][Sar][hPhe(3-Cl-4-CF3)]P[Ac5c][NMeGly(cPent)][NMeD]-Morpholide; lactam N-11) | C (A compound having a KD ratio of 0.1 or more and less than 3 is denoted as C) | B (a compound having 3 or more and less than 10 is denoted as B)
CCCCN1C(=O)[C@@H]2CCN2C(=O)[C@H](C)N(C)C(=O)[C@H]([C@@H](C)CC)NC(=O)[C@H](CC(C)C)N(C)C(=O)C[C@@H](C(=O)N2CCOCC2)N(C)C(=O)[C@H](C2CCCC2)N(C)C(=O)C2(CCCC2)NC(=O)[C@@H]2CCCN2C(=O)[C@H](CCc2ccc(C(F)(F)F)c(Cl)c2)NC(=O)CN(C)C(=O)[C@@H]1Cc1ccc(C(F)(F)F)cc1 [PP0106] ([NMeL]I[NMeA][Aze][X17][Sar][hPhe(3-Cl-4-CF3)]P[Ac5c][NMeGly(cPent)][NMeD]-Morpholide; lactam N-11) | B (a compound having 3 or more and less than 10 is denoted as B) | C (A compound having a KD ratio of 0.1 or more and less than 3 is denoted as C)
CC[C@H](C)[C@@H]1NC(=O)[C@H](CC(C)C)N(C)C(=O)C[C@@H](C(=O)N2CCOCC2)N(C)C(=O)[C@H](C2CCCC2)N(C)C(=O)C2(CCCC2)NC(=O)[C@@H]2CCCN2C(=O)[C@H](CCc2ccc(C(F)(F)F)c(Cl)c2)NC(=O)CN(C)C(=O)[C@H](Cc2ccc(C(F)(F)F)cc2)N(CC(C)C)C(=O)[C@@H]2CCN2C(=O)[C@H](C)N(C)C1=O [PP0107] ([NMeL]I[NMeA][Aze][X23][Sar][hPhe(3-Cl-4-CF3)]P[Ac5c][NMeGly(cPent)][NMeD]-Morpholide; lactam N-11) | C (A compound having a KD ratio of 0.1 or more and less than 3 is denoted as C) | C (A compound having a KD ratio of 0.1 or more and less than 3 is denoted as C)
CC[C@H](C)[C@@H]1NC(=O)[C@H](CC(C)C)N(C)C(=O)C[C@@H](C(=O)N2CCOCC2)N(C)C(=O)[C@H](C2CCCC2)N(C)C(=O)C2(CCCC2)NC(=O)[C@@H]2CCCN2C(=O)[C@H](CCc2ccc(C(F)(F)F)c(Cl)c2)NC(=O)CN(C)C(=O)[C@H](Cc2ccc(C(F)(F)F)cc2)N(CC2CC2)C(=O)[C@@H]2CCN2C(=O)[C@H](C)N(C)C1=O [PP0108] ([NMeL]I[NMeA][Aze][X31][Sar][hPhe(3-Cl-4-CF3)]P[Ac5c][NMeGly(cPent)][NMeD]-Morpholide; lactam N-11) | C (A compound having a KD ratio of 0.1 or more and less than 3 is denoted as C) | C (A compound having a KD ratio of 0.1 or more and less than 3 is denoted as C)
CC[C@H](C)[C@@H]1NC(=O)[C@H](CC(C)C)N(C)C(=O)C[C@@H](C(=O)N2CCOCC2)N(C)C(=O)[C@H](C2CCCC2)N(C)C(=O)C2(CCCC2)NC(=O)[C@@H]2CCCN2C(=O)[C@H](CCc2ccc(C(F)(F)F)c(Cl)c2)NC(=O)CN(C)C(=O)[C@H](Cc2ccc(C(F)(F)F)cc2)N(CC2CCC2)C(=O)[C@@H]2CCN2C(=O)[C@H](C)N(C)C1=O [PP0109] ([NMeL]I[NMeA][Aze][X37][Sar][hPhe(3-Cl-4-CF3)]P[Ac5c][NMeGly(cPent)][NMeD]-Morpholide; lactam N-11) | B (a compound having 3 or more and less than 10 is denoted as B) | C (A compound having a KD ratio of 0.1 or more and less than 3 is denoted as C)
CC[C@H](C)[C@@H]1NC(=O)[C@H](CC(C)C)N(C)C(=O)C[C@@H](C(=O)N2CCOCC2)N(C)C(=O)[C@H](C2CCCC2)N(C)C(=O)C2(CCCC2)NC(=O)[C@@H]2CCCN2C(=O)[C@H](CCc2ccc(C(F)(F)F)c(Cl)c2)NC(=O)CN(C)C(=O)[C@H](Cc2ccc(C(F)(F)F)cc2)N(CC2CCCC2)C(=O)[C@@H]2CCN2C(=O)[C@H](C)N(C)C1=O [PP0110] ([NMeL]I[NMeA][Aze][X21][Sar][hPhe(3-Cl-4-CF3)]P[Ac5c][NMeGly(cPent)][NMeD]-Morpholide; lactam N-11) | B (a compound having 3 or more and less than 10 is denoted as B) | C (A compound having a KD ratio of 0.1 or more and less than 3 is denoted as C)

Reference: patent US20250230193A1, “CYCLIC COMPOUND HAVING SELECTIVE KRAS INHIBITORY EFFECT ON HRAS AND NRAS” (CHUGAI SEIYAKU KABUSHIKI KAISHA, priority 2022, published 2025)
